Where a name gives a salt, the structure may show the parent alone. Read-outs that look alike come from different tables or passages of the source.
What was measured:
[1] = in vivo; details: male, Wistar, rat, male rats; for AUC(0-t): AUCt; for Cmax: suspension in hydroxypropylmethylcellulose:Tween 80 in WFI, plasma Lapatinib; for bioavailability: F (absolute bioavailability), oral 30 mg/kg AUCt compared with iv 10 mg/kg; for Vd/F: Vz/F; for MRT last: MRTt (mean residence time)
Protocol: (§1) For the oral administration, the compounds were suspended in hydroxypropylmethylcellulose:Tween 80 (0.5%:0.1%) in WFI to reach a concentration of 3 mg parent compound/mL in all cases.
(§2) A bioanalytical UPLC®-MS/MS method was characterized and allowed the determination of the Lapatinib in rat plasma; the precision and accuracy of the QC samples was appropriate according to international guidelines.
(§3) A non-compartmental pharmacokinetic analysis was carried out with mean plasma concentration-time curves using WinNonlin® Professional Version 6.3 (Phoenix Version 1.3, Pharsight Corporation):
(§4) For the preparation of the intravenous solution and the oral suspensions, the correction factor and the purity were applied for all compounds. Blood samples were collected from all animals at all scheduled time points.
(§5) The study samples were analyzed according to the following UPLC®-MS/MS method:

[2] = Stability at 74% RH at 40° C. (XRPD)
[3] = Model-based PK analysis (NONMEM), oral administration, two parallel input processes; details: for AUC0INF / Absolute Bioavail. / Cmax / MRTINF / Tmax: derived from PK modelling, oral
Description: (§6) Therefore, the absorption process was described by two parallel inputs processes. The first input characterized a fast-release component (with a ka1 rate of absorption) while the second input characterized a delayed release of the drug (with a ka2 rate of absorption). The fraction of the oral dose associated with the first absorption component was estimated by the F parameter, while the remaining fraction of the drug (1-F) was assumed to be released in the second absorption process. The F fraction of the dose was immediately release (lag1) while the release of the remaining (1-F) fraction occurred with an estimated lag time (lag2).
(§7) The disposition and elimination PK parameters of Lapatinib (k12, k21, k13, k31, and kel) for the different oral formulations were fixed to the ones estimated in the IV model due to the limited PK samples available for a proper characterization of these parameters after oral administration.

[4] = Stability in water suspension followed by XRPD; assay type: physicochemical; details: 40 volumes of water, room temperature, XRPD at 1, 4 and 24 hours
Protocol: The three suspensions were stirred at room temperature in 40 volumes of water and the transformation of the product was followed by XRPD at 1 hour, 4 hours and 24 hours.

[5] = male rats; for Cmax: suspension in hydroxypropylmethylcellulose:Tween 80 in WFI, plasma Lapatinib
Protocol: as §1, §2, §3, §4, §5

[6] = Intravenous bolus pharmacokinetics, non-compartmental analysis, 10 mg Lapatinib/kg; assay type: in vivo; details: Wistar, rat, plasma, male rats
Protocol: as §3

[7] = Tyverb EPAR; cited from earlier work
[8] = in vivo; details: Wistar, rat, plasma, iv, 10 mg/kg
[9] = in vivo; details: Wistar, rat, plasma, po, 30 mg/kg
Description: as §6, §7

[10] = Model-based PK analysis (NONMEM), IV administration, three-compartment model; details: Group 1
[11] = pKa values for the FDA co-crystal criterion; assay type: physicochemical; details: approximated by comparison with Gefitinib and Erlotinib; read-out: pKa of the second less basic function
Description: As further confirmation that the products of the present inventions are co-crystals and not simply salts, the criterion adopted by the FDA Guidelines of April 2013 (see below) is here reported: the active ingredient-excipient complex should be classified as co-crystal if ΔpKa of the two species is <1.

[12] = cited from earlier work
[13] = coformer acid; cited from earlier work
[14] = plasma, po, 30 mg/kg, oral 30 mg/kg
[15] = listed as co-crystal Lapatinib monotosylate:caproic acid (1:2)
[16] = listed as co-crystal Lapatinib monotosylate:caprylic acid (1:2)
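Throughout, for Cmax/AUCt (apparent absorption rate): parent drug in plasma quantified by UPLC-MS/MS, parameters derived by non-compartmental analysis of mean concentration-time curves, oral suspension at 3 mg/mL.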
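Throughout, for F (absolute bioavailability): parent drug in plasma quantified by UPLC-MS/MS, parameters derived by non-compartmental analysis of mean concentration-time curves, oral suspension at 3 mg/mL.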
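Throughout, for F: parent drug in plasma quantified by UPLC-MS/MS, parameters derived by non-compartmental analysis of mean concentration-time curves, oral suspension at 3 mg/mL.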
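Throughout, for t1/2app (apparent terminal elimination half-life): parent drug in plasma quantified by UPLC-MS/MS, parameters derived by non-compartmental analysis of mean concentration-time curves, oral suspension at 3 mg/mL.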

**Q.** Which results are given for `CS(=O)(=O)CCNCc1ccc(-c2ccc3ncnc(Nc4ccc(OCc5cccc(F)c5)c(Cl)c4)c3c2)o1` [Form I, Lapatinib monotosylate:caproic acid (1:2)]?
**A.** AUC(0-t) [1, 14]: 13300 ng·h/mL; CL/F [1, 14]: 33.2 mL/min/kg; Cmax [1, 14]: 3170 ng/mL; bioavailability ([1]; plasma, po, 30 mg/kg): 32.4%; Vd/F [1, 14]: 6.83 L/kg; Tmax ([1]; plasma, po, 30 mg/kg, tmax, oral 30 mg/kg): 2 h; exposure time after which very small amounts of Lapatinib monotosylate Form M1 were detected by XRPD [2]: 23 days; Lapatinib monotosylate observed in the co-crystal after 23 days [2]: a little amount; AUC0INF [3, 15]: 15000 ng·h/mL; Absolute Bioavail. [3, 15]: 35.5%; Cmax [3, 15]: 3018.6 ng/mL; MRTINF [3, 15]: 3.85 h; Tmax [3, 15]: 1.6 h

**Q.** For `CS(=O)(=O)CCNCc1ccc(-c2ccc3ncnc(Nc4ccc(OCc5cccc(F)c5)c(Cl)c4)c3c2)o1` [Form II, Lapatinib monotosylate:caprylic acid (1:2)], which “stability in water suspension (XRPD finding)” value [4] is on record?
**A.** recovering pure Form II after 24 hours

**Q.** What about the Cmax ([5]; oral 30 mg/kg, 30 mg/kg) of the same compound?
**A.** 2814 ng/mL

**Q.** What about the AUCt ([5]; oral 30 mg/kg, 30 mg/kg) of the same compound?
**A.** 20778 ng·h/mL

**Q.** And the Tmax ([5]; oral 30 mg/kg, 30 mg/kg)?
**A.** 3 h

**Q.** And the bioavailability ([1]; in vivo, 30 mg Lapatinib/kg)?
**A.** 50.7%

**Q.** What about the MRT last ([1]; in vivo, po, 30 mg/kg, oral 30 mg/kg) of the same compound?
**A.** 4.67 h

**Q.** What about the “exposure time after which very small amounts of Lapatinib monotosylate Form M1 were detected by XRPD” value [2] of the same compound?
**A.** 60 days

**Q.** What about the “Lapatinib monotosylate observed in the co-crystal after 23 days” value [2] of the same compound?
**A.** only traces

**Q.** What about the AUC0INF [3, 16] of the same compound?
**A.** 16700 ng·h/mL

**Q.** And the “Absolute Bioavail.” value [3, 16]?
**A.** 39.5%

**Q.** And the Cmax [3, 16]?
**A.** 2813.5 ng/mL

**Q.** And the MRTINF [3, 16]?
**A.** 4.67 h

**Q.** And the Tmax [3, 16]?
**A.** 3 h

**Q.** With `CS(=O)(=O)CCNCc1ccc(-c2ccc3ncnc(Nc4ccc(OCc5cccc(F)c5)c(Cl)c4)c3c2)o1` [Form III, Lapatinib monohydrochloride:adipic acid (1:1)] as the compound, how does the “F (absolute bioavailability)” value ([5]; oral 30 mg/kg AUCt compared with iv 10 mg/kg) read?
**A.** 44.98%

**Q.** And the Cmax ([5]; oral 30 mg/kg, 30 mg/kg)?
**A.** 2567 ng/mL

**Q.** What about the AUCt ([5]; oral 30 mg/kg, 30 mg/kg) of the same compound?
**A.** 18433 ng·h/mL

**Q.** What about the Tmax ([5]; oral 30 mg/kg, 30 mg/kg) of the same compound?
**A.** 3 h

**Q.** And the “t1/2app (apparent terminal elimination half-life)” value ([5]; oral 30 mg/kg, 30 mg/kg)?
**A.** 3.13 h

**Q.** For `CS(=O)(=O)CCNCc1ccc(-c2ccc3ncnc(Nc4ccc(OCc5cccc(F)c5)c(Cl)c4)c3c2)o1.Cc1ccc(S(=O)(=O)O)cc1` [Lapatinib ditosylate monohydrate, N-{3-chloro-4-[(3-fluorobenzyl)oxy]phenyl}-6-[5-({[2-(methylsulphonyl)ethyl]amino}methyl)furan-2-yl]quinazolin-4-amine bis(4-methylbenzenesulphonate)monohydrate, reference compound], which C0 ([6]; iv bolus 10 mg/kg in DMSO:PEG:WFI (10:40:50), read-out: C0 (extrapolated concentration at time 0)) is on record?
**A.** 20200 ng/mL

**Q.** What about the AUC(0-t) ([6]; iv bolus 10 mg/kg) of the same compound?
**A.** 13700 ng·h/mL

**Q.** And the MRT last ([6]; iv bolus 10 mg/kg)?
**A.** 1.54 h

**Q.** And the “Cmax/AUCt (apparent absorption rate)” value ([5]; oral 30 mg/kg)?
**A.** 0.149 h⁻¹

**Q.** What about the hygroscopicity [7] of the same compound?
**A.** non-hygroscopic

**Q.** What about the “solubility in aqueous media” value [7] of the same compound?
**A.** practically insoluble in aqueous media

**Q.** And the bioavailability ([1]; plasma, oral, 30 mg Lapatinib/kg)?
**A.** 57.5%

**Q.** What about the AUC(0-t) [1, 14] of the same compound?
**A.** 23600 ng·h/mL

**Q.** And the CL/F [1, 14]?
**A.** 21.2 mL/min/kg

**Q.** And the Cmax [1, 14]?
**A.** 3520 ng/mL

**Q.** What about the MRT last [1, 14] of the same compound?
**A.** 4.28 h

**Q.** And the Vd/F [1, 14]?
**A.** 4.38 L/kg

**Q.** What about the half-life ([1]; plasma, po, 30 mg/kg, t1/2app (apparent terminal elimination half-life), oral 30 mg/kg) of the same compound?
**A.** 143 min

**Q.** And the AUC [8]?
**A.** 12300 ng·h/mL

**Q.** And the MRT inf [8]?
**A.** 35.9 h

**Q.** What about the AUC [9] of the same compound?
**A.** 18400 ng·h/mL

**Q.** What about the Cmax [9] of the same compound?
**A.** 3510 ng/mL

**Q.** And the MRT inf [9]?
**A.** 4.31 h

**Q.** And the Tmax [9]?
**A.** 2 h

**Q.** What about the k12 ([10]; IV model) of the same compound?
**A.** 0.616

**Q.** And the k13 ([10]; IV model)?
**A.** 3.14

**Q.** What about the k21 ([10]; IV model) of the same compound?
**A.** 0.00202

**Q.** What about the k31 ([10]; IV model) of the same compound?
**A.** 1.47

**Q.** And the kel ([10]; IV model)?
**A.** 1.6

**Q.** And the v ([10]; IV model)?
**A.** 0.358

**Q.** What about the AUC0INF ([10]; derived from PK modelling, IV) of the same compound?
**A.** 14100 ng·h/mL

**Q.** What about the T12 ([10]; derived from PK modelling, IV) of the same compound?
**A.** 176 h

**Q.** And the AUC0INF [3]?
**A.** 18400 ng·h/mL

**Q.** And the “Absolute Bioavail.” value [3]?
**A.** 43.5%

**Q.** And the lag1 ([3]; oral model, first (immediate) release)?
**A.** 0

**Q.** What does the source list for `CS(=O)(=O)CCNCc1ccc(-c2ccc3ncnc(Nc4ccc(OCc5cccc(F)c5)c(Cl)c4)c3c2)o1` [Lapatinib]?
**A.** pKa [11]: ~5.4; increase of bioavailability when co-administered with a high fat meal ([12]; compared with fasting conditions, Ratain and Cohen): 325%; drug class (solubility/permeability) ([12]; low solubility-good permeability, Custodio et al.): Class II

**Q.** With `CCCCCC(=O)O` [caproic acid] as the compound, how does the pKa [13] read?
**A.** 4.8

**Q.** Which pKa [13] does the source give for `CCCCCCCC(=O)O` [caprylic acid] here?
**A.** 4.91
